According to patent US20260345595A1, “NOVEL FLUORENE DERIVATIVE COMPOUND AND USE THEREOF” (JD BIOSCIENCE INC., priority 2022, published 2026):

Tested on: PDHE1α S293
Assay: In vitro PDH S293 phosphorylation inhibition, Western blot in HEK293 cells
Assay type: cell-based
Details: Homo sapiens, 5 hours
Method: HEK293 cells, which are human embryonic kidney cells, were seeded at a density of 2×10^6 in a 60 mm dish, and cultured for 24 hours. After replacing the medium with a medium comprising 0.5% FBS, the compounds prepared according to Examples 1 to 54 were treated at various concentrations. 5 hours later, the cells were scraped off and collected into a 15 ml conical tube and centrifuged at 1500 rpm for 10 minutes. The supernatant was discarded, the resultant was washed with 1×PBS, and transferred to a 1.5 mL e-tube, followed by centrifugation at 10,000 rpm for 5 minutes. The supernatant was discarded again, a lysis buffer was added, and the cells were lysed on ice for 30 minutes. The cells were vortexed every 10 minutes to completely lyse, and centrifuged again at 10,000 rpm for 15 minutes at 4 °C., and the supernatant was collected. The protein in the supernatant was quantified using BCA technique, and the sample buffer was added to 20 μg of protein and allowed to react at 70 °C. for 5 minutes. The expression of PDHE1α S232, S293, S300, and total PDHE1α proteins was detected by Western blot, and the resulting PDH S293 phosphorylation inhibition is shown in Table 6.

| SMILES | inhibition at 1 µM |
| --- | --- |
| COc1cc(-c2cnn(C(C)C(=O)NNc3ncc(C(F)(F)F)cc3Cl)c2)c2c(c1)C(O)(C(F)(F)F)c1ccccc1-2 (centres unmarked) [Compound 33, N′-(3-chloro-5-(trifluoromethyl)pyridin-2-yl)-2-(4-(9-hydroxy-2-methoxy-9-(trifluoromethyl)-9H-fluoren-4-yl)-1H-pyrazol-1-yl)propanehydrazide] | ≥ 50% |
| CC(C(=O)NNc1ncc(C(F)(F)F)cc1Cl)n1cc(-c2cc(F)cc3c2-c2ccccc2C3(O)C(F)(F)F)cn1 (centres unmarked) [Compound 32, N′-(3-chloro-5-(trifluoromethyl)pyridin-2-yl)-2-(4-(2-fluoro-9-hydroxy-9-(trifluoromethyl)-9H-fluoren-4-yl)-1H-pyrazol-1-yl)propanehydrazide] | ≥ 50% |
